Test results from the NIST ThermoML archive (doi:10.1021/je034087q).
Numbers after ± are expanded uncertainties.

Assay: xn = mol fraction of the nth substance listed
Conditions: Fluid (supercritical or subcritical phases)

## CC(C)=O [acetone] + O=C=O
335.15 K, 10350 kPa, x2 = 0.909
  mass density: 583 ± 4 kg/m3
335.15 K, 10420 kPa, x2 = 0.909
  mass density: 589 ± 4 kg/m3
335.15 K, 10500 kPa, x2 = 0.909
  mass density: 593 ± 4 kg/m3
335.15 K, 10590 kPa, x2 = 0.909
  mass density: 599 ± 4 kg/m3
335.15 K, 10680 kPa, x2 = 0.909
  mass density: 604 ± 4 kg/m3
335.15 K, 10780 kPa, x2 = 0.909
  mass density: 611 ± 4 kg/m3
335.15 K, 10890 kPa, x2 = 0.909
  mass density: 616 ± 4 kg/m3
335.15 K, 11020 kPa, x2 = 0.909
  mass density: 623 ± 4 kg/m3
335.15 K, 11150 kPa, x2 = 0.909
  mass density: 628 ± 4 kg/m3
335.15 K, 11280 kPa, x2 = 0.909
  mass density: 635 ± 4 kg/m3
335.15 K, 11440 kPa, x2 = 0.909
  mass density: 640 ± 4 kg/m3
335.15 K, 11600 kPa, x2 = 0.909
  mass density: 648 ± 4 kg/m3
335.15 K, 11790 kPa, x2 = 0.909
  mass density: 653 ± 4 kg/m3
335.15 K, 12010 kPa, x2 = 0.909
  mass density: 661 ± 4 kg/m3
335.15 K, 12240 kPa, x2 = 0.909
  mass density: 667 ± 4 kg/m3
335.15 K, 12460 kPa, x2 = 0.909
  mass density: 675 ± 4 kg/m3
335.15 K, 12750 kPa, x2 = 0.909
  mass density: 681 ± 4 kg/m3
335.15 K, 13080 kPa, x2 = 0.909
  mass density: 691 ± 4 kg/m3
335.15 K, 13400 kPa, x2 = 0.909
  mass density: 697 ± 4 kg/m3
335.15 K, 13770 kPa, x2 = 0.909
  mass density: 706 ± 4 kg/m3
335.15 K, 14150 kPa, x2 = 0.909
  mass density: 711 ± 4 kg/m3
335.15 K, 14600 kPa, x2 = 0.909
  mass density: 721 ± 5 kg/m3
336.35 K, 9960 kPa, x2 = 0.902
  mass density: 531 ± 3 kg/m3
336.35 K, 10000 kPa, x2 = 0.902
  mass density: 535 ± 3 kg/m3
336.35 K, 10030 kPa, x2 = 0.902
  mass density: 538 ± 3 kg/m3
336.35 K, 10080 kPa, x2 = 0.902
  mass density: 542 ± 3 kg/m3
336.35 K, 10110 kPa, x2 = 0.902
  mass density: 545 ± 3 kg/m3
336.35 K, 10150 kPa, x2 = 0.902
  mass density: 547 ± 3 kg/m3
336.35 K, 10190 kPa, x2 = 0.902
  mass density: 551 ± 3 kg/m3
336.35 K, 10230 kPa, x2 = 0.902
  mass density: 555 ± 3 kg/m3
336.35 K, 10260 kPa, x2 = 0.902
  mass density: 558 ± 4 kg/m3
336.35 K, 10310 kPa, x2 = 0.902
  mass density: 561 ± 4 kg/m3
336.35 K, 10360 kPa, x2 = 0.902
  mass density: 566 ± 4 kg/m3
336.35 K, 10390 kPa, x2 = 0.902
  mass density: 569 ± 4 kg/m3
336.35 K, 10450 kPa, x2 = 0.902
  mass density: 573 ± 4 kg/m3
336.35 K, 10540 kPa, x2 = 0.902
  mass density: 579 ± 4 kg/m3
336.35 K, 10610 kPa, x2 = 0.902
  mass density: 583 ± 4 kg/m3
336.35 K, 10710 kPa, x2 = 0.902
  mass density: 590 ± 4 kg/m3
336.35 K, 10810 kPa, x2 = 0.902
  mass density: 595 ± 4 kg/m3
336.35 K, 10910 kPa, x2 = 0.902
  mass density: 602 ± 4 kg/m3
336.35 K, 11020 kPa, x2 = 0.902
  mass density: 606 ± 4 kg/m3
336.35 K, 11100 kPa, x2 = 0.902
  mass density: 611 ± 4 kg/m3
336.35 K, 11200 kPa, x2 = 0.902
  mass density: 616 ± 4 kg/m3
336.35 K, 11320 kPa, x2 = 0.902
  mass density: 620 ± 4 kg/m3
336.35 K, 11420 kPa, x2 = 0.902
  mass density: 625 ± 4 kg/m3
336.35 K, 11570 kPa, x2 = 0.902
  mass density: 631 ± 4 kg/m3
336.35 K, 11700 kPa, x2 = 0.902
  mass density: 638 ± 4 kg/m3
336.35 K, 11790 kPa, x2 = 0.902
  mass density: 641 ± 4 kg/m3
336.35 K, 11950 kPa, x2 = 0.902
  mass density: 645 ± 4 kg/m3
336.35 K, 12080 kPa, x2 = 0.902
  mass density: 649 ± 4 kg/m3
336.35 K, 12210 kPa, x2 = 0.902
  mass density: 654 ± 4 kg/m3
336.35 K, 12400 kPa, x2 = 0.902
  mass density: 659 ± 4 kg/m3
336.35 K, 12570 kPa, x2 = 0.902
  mass density: 663 ± 4 kg/m3
336.35 K, 12710 kPa, x2 = 0.902
  mass density: 668 ± 4 kg/m3
336.35 K, 12940 kPa, x2 = 0.902
  mass density: 673 ± 4 kg/m3
336.35 K, 13140 kPa, x2 = 0.902
  mass density: 678 ± 4 kg/m3
336.35 K, 13320 kPa, x2 = 0.902
  mass density: 684 ± 4 kg/m3
336.35 K, 13580 kPa, x2 = 0.902
  mass density: 688 ± 4 kg/m3
336.35 K, 13900 kPa, x2 = 0.902
  mass density: 694 ± 4 kg/m3
336.35 K, 14180 kPa, x2 = 0.902
  mass density: 701 ± 4 kg/m3
336.35 K, 14450 kPa, x2 = 0.902
  mass density: 706 ± 4 kg/m3
336.35 K, 14700 kPa, x2 = 0.902
  mass density: 710 ± 4 kg/m3
336.35 K, 14920 kPa, x2 = 0.902
  mass density: 715 ± 4 kg/m3
338.15 K, 10080 kPa, x2 = 0.902
  mass density: 511 ± 3 kg/m3
338.15 K, 10110 kPa, x2 = 0.902
  mass density: 515 ± 3 kg/m3
338.15 K, 10180 kPa, x2 = 0.902
  mass density: 520 ± 3 kg/m3
338.15 K, 10230 kPa, x2 = 0.902
  mass density: 524 ± 3 kg/m3
338.15 K, 10280 kPa, x2 = 0.902
  mass density: 529 ± 3 kg/m3
338.15 K, 10340 kPa, x2 = 0.902
  mass density: 533 ± 3 kg/m3
338.15 K, 10380 kPa, x2 = 0.902
  mass density: 538 ± 3 kg/m3
338.15 K, 10430 kPa, x2 = 0.902
  mass density: 542 ± 3 kg/m3
338.15 K, 10500 kPa, x2 = 0.902
  mass density: 548 ± 3 kg/m3
338.15 K, 10560 kPa, x2 = 0.902
  mass density: 552 ± 3 kg/m3
338.15 K, 10640 kPa, x2 = 0.902
  mass density: 558 ± 4 kg/m3
338.15 K, 10710 kPa, x2 = 0.902
  mass density: 563 ± 4 kg/m3
338.15 K, 10780 kPa, x2 = 0.902
  mass density: 569 ± 4 kg/m3
338.15 K, 10860 kPa, x2 = 0.902
  mass density: 573 ± 4 kg/m3
338.15 K, 10910 kPa, x2 = 0.902
  mass density: 581 ± 4 kg/m3
338.15 K, 10980 kPa, x2 = 0.902
  mass density: 584 ± 4 kg/m3
338.15 K, 11080 kPa, x2 = 0.902
  mass density: 590 ± 4 kg/m3
338.15 K, 11200 kPa, x2 = 0.902
  mass density: 595 ± 4 kg/m3
338.15 K, 11280 kPa, x2 = 0.902
  mass density: 600 ± 4 kg/m3
338.15 K, 11350 kPa, x2 = 0.902
  mass density: 603 ± 4 kg/m3
338.15 K, 11420 kPa, x2 = 0.902
  mass density: 606 ± 4 kg/m3
338.15 K, 11510 kPa, x2 = 0.902
  mass density: 610 ± 4 kg/m3
338.15 K, 11590 kPa, x2 = 0.902
  mass density: 615 ± 4 kg/m3
338.15 K, 11630 kPa, x2 = 0.902
  mass density: 616 ± 4 kg/m3
338.15 K, 11710 kPa, x2 = 0.902
  mass density: 619 ± 4 kg/m3
338.15 K, 11790 kPa, x2 = 0.902
  mass density: 622 ± 4 kg/m3
338.15 K, 11880 kPa, x2 = 0.902
  mass density: 627 ± 4 kg/m3
338.15 K, 11950 kPa, x2 = 0.902
  mass density: 629 ± 4 kg/m3
338.15 K, 12040 kPa, x2 = 0.902
  mass density: 632 ± 4 kg/m3
338.15 K, 12110 kPa, x2 = 0.902
  mass density: 634 ± 4 kg/m3
338.15 K, 12240 kPa, x2 = 0.902
  mass density: 640 ± 4 kg/m3
338.15 K, 12330 kPa, x2 = 0.902
  mass density: 642 ± 4 kg/m3
338.15 K, 12460 kPa, x2 = 0.902
  mass density: 646 ± 4 kg/m3
338.15 K, 12570 kPa, x2 = 0.902
  mass density: 651 ± 4 kg/m3
338.15 K, 12700 kPa, x2 = 0.902
  mass density: 654 ± 4 kg/m3
338.15 K, 12880 kPa, x2 = 0.902
  mass density: 659 ± 4 kg/m3
338.15 K, 13010 kPa, x2 = 0.902
  mass density: 663 ± 4 kg/m3
338.15 K, 13200 kPa, x2 = 0.902
  mass density: 668 ± 4 kg/m3
338.15 K, 13320 kPa, x2 = 0.902
  mass density: 671 ± 4 kg/m3
338.15 K, 13480 kPa, x2 = 0.902
  mass density: 675 ± 4 kg/m3
338.15 K, 13710 kPa, x2 = 0.902
  mass density: 680 ± 4 kg/m3
338.15 K, 13860 kPa, x2 = 0.902
  mass density: 684 ± 4 kg/m3
338.15 K, 14080 kPa, x2 = 0.902
  mass density: 689 ± 4 kg/m3
338.15 K, 14300 kPa, x2 = 0.902
  mass density: 693 ± 4 kg/m3
338.15 K, 14560 kPa, x2 = 0.902
  mass density: 699 ± 4 kg/m3
338.15 K, 14780 kPa, x2 = 0.902
  mass density: 700 ± 4 kg/m3
338.15 K, 15010 kPa, x2 = 0.902
  mass density: 705 ± 4 kg/m3
